A short description of the test: Inhibition of human 20S constitutive proteasome beta-1 using Z-LLE-betaNA as substrate incubated for 15 mins measured for 45 mins by fluorescence assay.

The structures appear in SMILES notation.

What is called IC50 is the midpoint of a concentration-inhibition curve. `NCCCC[C@H](NC(=O)[C@@H](N)Cc1ccc(OCc2ccccc2)cc1)C(=O)N[C@@H](C[C@]1(O)C(=O)Nc2ccccc21)C(=O)NCc1ccccc1` returned an IC50 of 13 µM. Molecule `C[C@H](NC(=O)[C@H](Cc1ccc(OCc2ccccc2)cc1)NC(=O)OC(C)(C)C)C(=O)N[C@@H](C[C@@]1(O)C(=O)Nc2ccccc21)C(=O)NCc1ccccc1` yielded an IC50 of 17.2 µM. As for `C[C@H](NC(=O)Cc1cccc(Oc2ccccc2)c1)C(=O)N[C@@H](C[C@]1(O)C(=O)Nc2ccccc21)C(=O)NCc1ccccc1`, the IC50 worked out at 40 µM. With `C[C@H](NC(=O)[C@H](Cc1ccc(OCc2ccccc2)cc1)NC(=O)OC(C)(C)C)C(=O)N[C@@H](C[C@]1(O)C(=O)Nc2ccccc21)C(=O)NCC(C)(C)C`, the half-inhibitory concentration (IC50) is 15.1 µM. `CC(C)(C)OC(=O)N[C@@H](Cc1ccc(OCc2ccccc2)cc1)C(=O)N[C@@H](CC(N)=O)C(=O)N[C@@H](C[C@]1(O)C(=O)Nc2ccccc21)C(=O)NCc1ccccc1` yielded an IC50 of 20.1 µM. Molecule `C[C@H](NC(=O)c1ccc(OCc2ccccc2)cc1)C(=O)N[C@@H](C[C@]1(O)C(=O)Nc2ccccc21)C(=O)NCc1ccccc1` had an IC50 of 35 µM. Then `C[C@H](NC(=O)[C@H](Cc1ccc(OCc2ccccc2)cc1)NC(=O)OC(C)(C)C)C(=O)N[C@@H](C[C@]1(O)C(=O)Nc2ccccc21)C(=O)NCc1cccc2ccccc12`, with 2.14 µM; and `C[C@H](NC(=O)[C@H](Cc1ccc(OCc2ccccc2)cc1)NC(=O)OC(C)(C)C)C(=O)N[C@@H](C[C@]1(O)C(=O)N(C)c2ccccc21)C(=O)NCc1ccccc1`, with 11.4 µM; and `C[C@H](NC(=O)[C@H](Cc1ccc(OCc2ccccc2)cc1)NC(=O)OC(C)(C)C)C(=O)N[C@@H](C[C@@]1(O)C(=O)N(C)c2ccccc21)C(=O)NCc1ccccc1`, with 13.4 µM. Then `CC(O)[C@@H](NC(=O)c1ccc(OCc2ccccc2)cc1)C(=O)N[C@@H](C[C@]1(O)C(=O)Nc2ccccc21)C(=O)NCc1ccccc1` (stereo not given in full), with 31.9 µM. As for `C[C@H](NC(=O)[C@H](Cc1ccc(OCc2ccccc2)cc1)NC(=O)OC(C)(C)C)C(=O)N[C@@H](C[C@]1(O)C(=O)Nc2ccccc21)C(=O)NC(c1ccccc1)c1ccccc1`, the IC50 was found to be 2.2 µM.

In turn, `C[C@@H](NC(=O)[C@H](Cc1ccc(OCc2ccccc2)cc1)NC(=O)OC(C)(C)C)C(=O)N[C@@H](C[C@]1(O)C(=O)Nc2ccccc21)C(=O)NCc1ccccc1` had an IC50 of 17.1 µM. As for `C[C@H](NC(=O)[C@H](Cc1ccc(OCc2ccccc2)cc1)NC(=O)OC(C)(C)C)C(=O)N[C@@H](C[C@]1(O)C(=O)Nc2ccccc21)C(=O)NCc1ccc(-c2ccccc2)cc1`, the IC50 came out at 17.6 µM. Take `C[C@H](NC(=O)[C@@H](N)Cc1ccc(OCc2ccccc2)cc1)C(=O)N[C@@H](C[C@]1(O)C(=O)Nc2ccccc21)C(=O)NCc1ccccc1`: it took 30 µM to reach half-maximal inhibition (IC50).

On to `C[C@H](NC(=O)[C@H](Cc1ccc(OCc2ccccc2)cc1)NC(=O)OC(C)(C)C)C(=O)N[C@@H](C[C@]1(O)C(=O)Nc2ccccc21)C(=O)NCCc1ccccc1`, for which the IC50 was 4.9 µM.

The record behind these values is BindingDB's records for doi:10.1016/j.ejmech.2018.01.013 (University of Rennes 1, 2018).
